# Data from US8377974B2 (Millennium Pharmaceuticals, Inc., priority 2004, dated 2013).
# Target: T1, human plasma protein factor Xa (Homo sapiens, UniProt P00742)
# T1 construct: measure proteolytic activity of the enzyme (factor Xa); purchased Haematologic Technologies (Essex Junction, Vt.); host or cells: human plasma
# Assay: Factor Xa IC50 determination: cleavage of paranitroanilide substrate S-2765 in 96-well plates
# Type: biochemical
# Conditions: fXa 1 nM, S-2765 100 μM, Tris buffered saline pH 7.4, room temperature
# Procedure, shortened: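 Initial rates of S-2765 (100 μM final) cleavage, read at 405 nm for 2 min, fitted with a four-parameter equation to give IC50. Enzyme: 1 nM human plasma fXa, 5 min room-temperature preincubation with inhibitor (0.01 nM–10 μM) in 20 mM Tris, 150 mM NaCl, 5 mM CaCl2, 0.1% BSA, 5% DMSO, pH 7.4; duplicates.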
# T1 sequence (P00742 235-488 limits assumed): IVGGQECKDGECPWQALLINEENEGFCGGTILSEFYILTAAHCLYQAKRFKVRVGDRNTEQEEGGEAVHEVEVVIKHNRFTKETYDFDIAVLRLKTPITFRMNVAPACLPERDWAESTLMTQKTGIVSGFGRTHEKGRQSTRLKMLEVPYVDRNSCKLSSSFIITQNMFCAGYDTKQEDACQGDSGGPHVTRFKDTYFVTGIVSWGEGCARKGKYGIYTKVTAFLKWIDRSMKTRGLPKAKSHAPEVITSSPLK
# T1 sequence (P00742 41-179 partner limits assumed): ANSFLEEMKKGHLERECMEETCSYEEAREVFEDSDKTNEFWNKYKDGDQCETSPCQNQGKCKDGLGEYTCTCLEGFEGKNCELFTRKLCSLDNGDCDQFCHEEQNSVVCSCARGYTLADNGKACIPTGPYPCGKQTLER
row,SMILES,IC50 [nM]
1,"CN(C)C(=N)c1ccc(-c2cncc(CNC(=O)c3ccc(Cl)s3)c2)cc1 [Example 369, N-((5-(4-(N,N-Dimethylcarbamimidoyl)phenyl)pyridin-3-yl)methyl)-5-chlorothiophene-2-carboxamide]",≤ 100
2,"O=C(NCc1cn(-c2ccc(N3CCOCC3=O)cc2F)nn1)c1ccc(Cl)s1 [Example 306, 5-Chloro-N-((1-(2-fluoro-4-(3-oxomorpholino)phenyl)-1H-1,2,3-triazol-4-yl)methyl)thiophene-2-carboxamide]",≤ 100
3,"N=C(c1ccc(-n2cnc(CNC(=O)c3ccc(Cl)s3)c2)cc1)N1CCCC1 [Example 367, 5-Chloro-N-((1-(4-(imino(pyrrolidin-1-yl)methyl)phenyl)-1H-imidazol-4-yl)methyl)thiophene-2-carboxamide]",≤ 100
4,"CN(C)C(=N)c1ccc(-n2cc(CNC(=O)c3ccc(Cl)s3)nn2)c(F)c1 [Example 320, N-((1-(4-(N,N-Dimethylcarbamimidoyl)-2-fluorophenyl)-1H-1,2,3-triazol-4-yl)methyl)-5-chlorothiophene-2-carboxamide]",≤ 100
5,"O=C(NCc1cc(-c2ccc(Nc3ccncc3)cc2)no1)c1ccc(Cl)s1 [Example 254, 5-Chloro-thiophene-2-carboxylic acid {3-[4-(pyridin-4-ylamino)-phenyl]-isoxazol-5-ylmethyl}-amide]",≤ 100
6,"N=C(c1ccc(-c2cc(CNC(=O)c3ccc(Cl)s3)on2)c(F)c1)N1CCCC1 [Example 71, 5-Chloro-thiophene-2-carboxylic acid {3-[2-fluoro-4-(imino-pyrrolidin-1-yl-methyl)-phenyl]-isoxazol-5-ylmethyl}-amide]",≤ 100

# Now from value to molecule:
row,IC50 [nM],SMILES
1,≥ 500,"O=C(NCC1CC(c2ccc(NCc3ccccc3)cc2)=NO1)c1ccc(Cl)s1 (centres unmarked) [Example 221, 5-Chloro-thiophene-2-carboxylic acid [3-(4-benzylamino-phenyl)-4,5-dihydro-isoxazol-5-ylmethyl]-amide]"
2,≤ 100,"CN1CCN=C1c1ccc(-c2nc(CNC(=O)c3ccc(Cl)s3)co2)cc1 [Example 339, 5-Chloro-N-((2-(4-(1-methyl-4,5-dihydro-1H-imidazol-2-yl)phenyl)oxazol-4-yl)methyl)thiophene-2-carboxamide]"
3,≤ 100,"O=C(NCC1CC(c2ccc(-n3cc(F)ccc3=O)cc2)=NO1)c1ccc(Cl)s1 (centres unmarked) [Example 280, 5-Chloro-N-((3-(4-(5-fluoro-2-oxopyridin-1(2H)-yl)phenyl)-4,5-dihydroisoxazol-5-yl)methyl)thiophene-2-carboxamide]"
4,≤ 100,"CN1CCN=C1c1ccc(C2=NOC(C)(CNC(=O)c3ccc(Cl)s3)C2)cc1 (centres unmarked) [Example 58, 5-Chloro-thiophene-2-carboxylic acid {5-methyl-3-[4-(1-methyl-4,5-dihydro-1H-imidazol-2-yl)-phenyl]-4,5-dihydro-isoxazol-5-ylmethyl}-amide]"
5,≥ 500,"O=C(NCC1CC(c2ccc(Nc3ccccn3)cc2)=NO1)c1ccc(Cl)s1 (centres unmarked) [Example 224, 5-Chloro-thiophene-2-carboxylic acid {3-[4-(pyridin-2-ylamino)-phenyl]-4,5-dihydro-isoxazol-5-ylmethyl}-amide]"
6,≤ 100,"CCOc1cc(C(=N)N2CCCC2)ccc1C1=NOC(CNC(=O)c2ccc(Cl)s2)C1 (centres unmarked) [Example 108, 5-Chloro-thiophene-2-carboxylic acid {3-[2-ethoxy-4-(imino-pyrrolidin-1-yl-methyl)-phenyl]-4,5-dihydro-isoxazol-5-ylmethyl}-amide]"
7,≤ 100,"CCOC(=O)C1CCN(C(=N)c2ccc(C3=NOC(C)(CNC(=O)c4ccc(Cl)s4)C3)cc2)CC1 (centres unmarked) [Example 61, 1-{[4-(5-{[(5-Chloro-thiophene-2-carbonyl)-amino]-methyl}-5-methyl-4,5-dihydro-isoxazol-3-yl)-phenyl]-imino-methyl}-piperidine-4-carboxylic acid ethyl ester]"
8,≥ 500,"Nc1ccc(C2=NOC(CNC(=O)c3ccc(Cl)s3)C2)cc1 (centres unmarked) [Example 160, 5-Chloro-thiophene-2-carboxylic acid [3-(4-amino-phenyl)-4,5-dihydro-isoxazol-5-ylmethyl]-amide]"
